Source: patent US9597297B2, “Combination of pilocarpin and methimazol for treating Charcot-Marietooth disease and related disorders” (PHARNEXT, priority 2008, dated 2017)
Entries after “also recorded” stand apart in the source; their conditions may differ.

Assays:
[1] = system: PMP22 mRNA; experiment: PMP22 mRNA level by RT-Q-PCR in RT4-D6P2T schwannoma cells; format: cell-based, rat; conditions: 8 hrs, Methimazole 0.1 nm, Pilocarpine 0.001 nm, alone or combined
Description: Rat schwannoma RT4-D6-P2T cell line (ATCC #CRL2468™) is defrosted in DMEM (ATCC #30-2002) and 10% FCS (invitrogen #10106). The cells are maintained at 37° C. in a humidified incubator, in an atmosphere of air (95%.)—CO2 (5%). At passage n°4, cells are dissociated by trypsinization (+1 ml of Trypsin-EDTA, 0.25%-0.53 mM; Invitrogen) 5 to 15 min at 37° C. The reaction is stopped by addition of DMEM containing 10% of foetal bovine serum (FBS). […] are counted in a Neubauer cytometer using the trypan blue exclusion test (Sigma). The suspension is triturated with a 10 ml pipette and the cells are then centrifuged at 350×g for 10 min at room temperature. […]
Quantitative RT-PCR is used to compare the levels of PMP22 mRNA after drug stimulation, relative with housekeeping RPS9 mRNA in RT4-D6P2T cell line.
8 hrs after drug incubation, cells are rinsed with cold sterilized PBS, total RNAs from each cell sample are extracted and purified from SC using the Qiagen RNeasy micro kit (Qiagen #74004). Nucleic acids are quantified by Nanodrop spectrophotometer using 1 μl of RNA sample. The RNA integrity is determined through a BioAnalyzer (Agilent) apparatus. […]
In another experiment drugs (listed in Table 1) are incubated with rat schwannoma cell line during 8 hrs and PMP22 mRNA expression level was quantified by RT-Q-PCR.

[2] = system: CMT transgenic rat model (PMP22 transgenic rats); experiment: Bar test in CMT transgenic rats; format: in vivo; conditions: for time of treatment at which bar test effect becomes statistically significant: force-feeding; for bar test performances: female CMT TG rats vs TG placebo, methimazole 0.35 mg/kg, pilocarpine 0.2 mg/kg as printed in b214
Source text: The inventors have tested compounds and combinations for therapeutic effect in CMT transgenic rat model, a hemizygous PMP22 transgenic rats bearing three additional copies of mouse PMP22 gene show signs of demyelination in peripheral and cranial nerves, (Sereda et al., 1996; Grandis et al., 2004). At the mRNA level, an average 1.6-fold overexpression of PMP22 in CMT rats correlates with the clinical phenotype. A putative threshold level of PMP22 overexpression at which the wild type gene turns into a disease gene represents an obvious “target” to reach by treatment aimed at reducing PMP22 gene expression.
The inventors have tested the compounds and combinations for therapeutic effect in a rat model. The experimental groups are formed with young rats of both genders separately. The rats are assigned to the groups following randomization schedule based on the body weight. In some experiments the randomization is based on the performances of the rats in the bar test. Both genders are represented by separate control littermates groups that are numerically equal or bigger than the treatment groups.
The rats are treated chronically with drugs—force fed or injected by Alzet osmotic subcutaneous pump (DURECT Corporation Cupertino, Calif.), depending on each drug bioavailability during 3 or 6 weeks.
Each three or four weeks the animals are subjected to a behavioural test. Each test is conducted by the same investigator in the same room and at the same time of the day; this homogeneity is maintained throughout entire experiment. All treatments and genotype determination are blinded for the investigator. “Bar test” and “Grip strength” has been mainly used to access the performance throughout study. The schedule of the bar test may change as the animal growth (in order to avoid the bias due to the learning, for example).
The bar test evaluates rats' ability to hold on a fix rod. […] The rat is placed on its four paws on the middle of the rod (diameter: 2.5 cm; length: 50 cm; 30 cm above the table). Trials are performed consecutively; the number (5 or 10) and the duration (30 or 60 sec) of trials in our experiments have been depending on batches of the animals. This variability in the testing has been introduced in order to determine the schedule appropriated to the best detection of the motor deficiency in the CMT rats in the course of the experiments.
Performance indices are recorded on each session: • The number of trials needed to hold for 60 sec or 30 sec on the rod. • The mean time spent on the bar (i.e. the fall latency) in each trial and the average on the session. In the experimental procedures the session ends after the rat has stayed two times for a cut-off time, i.e. 30 or 60 s, on the bar. A performance of the cut-off time (30 s or 60 s) is assigned to trials not completed. • The number of falls.

SMILES	PMP22 mRNA level of expression [1]	time of treatment at which bar test effect becomes statistically significant ([2]; CMT TG rats) [weeks]	bar test performances ([2]; daily forced feeding)	bar test performances ([2]; daily forced feeding, listed as Methimazole)	bar test performance compared with WT placebo group ([2]; CMT TG rats, daily forced feeding)
Cn1cc[nH]c1=S [methimazole, 1-methyl-3H-imidazole-2-thione]	no significant activity	8	significantly more performing	improve bar test performances	–
CC[C@@H]1C(=O)OC[C@@H]1Cc1cncn1C [pilocarpine, (3S,4R)-3-ethyl-4-[(3-methylimidazol-4-yl)methyl]oxolan-2-one]	no significant activity	8	improve bar test performances; also recorded: significantly more performing	–	no more significantly differs from that of the WT placebo group
